Several values for one entry are separate records, joined by “and”; a condition that tells them apart may be missing. Equal values may be shown once. Read-outs that look alike come from different tables or passages of the source.
What was measured:
[1] = Host cell cytotoxicity (C2C12 viability); type: cell-based, Mouse; details: mouse
How it was run: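 Mouse C2C12 myoblasts co-seeded with CAI/72 trypomastigotes (10:1 parasite:cell) on compound, 48 h at 37 °C, 5% CO2. DAPI-stained fixed cells imaged; parasites per host cell normalized to 40 μM BNZ and DMSO. EC50 and C2C12 viability from dose-response curves, three biological replicates in triplicate.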

[2] = target: T1, Recombinant human cathepsin L (hCatL) (Homo sapiens, UniProt P07711); assay: Human cathepsin L inhibition assay (Z-FR-AMC substrate); type: biochemical
T1 construct: purchased R&D Systems 952-CY
Description: Compounds were screened at 10 μM. […] The experiment was performed for 30 min.
All experiments were accomplished in a 384-well black microplate, using a Synergy HTX (Biotek) plate reader at 25 °C with absorption/emission wavelengths of 360/460 nm. All assays were performed in triplicate wells and DMSO was used as a vehicle control. Enzymatic activity was measured and normalized to DMSO controls, and the inhibitor E-64 (10 μM) was used as a positive control for all assays. All experiments were performed in triplicates, with at least two independent assays (n = 6 data points). IC50 values were determined through nonlinear regression. Obtained data were treated and analyzed using GraphPad Prism 9.0 (GraphPad Software, La Jolla, California).

T1 sequence (P07711 114-333): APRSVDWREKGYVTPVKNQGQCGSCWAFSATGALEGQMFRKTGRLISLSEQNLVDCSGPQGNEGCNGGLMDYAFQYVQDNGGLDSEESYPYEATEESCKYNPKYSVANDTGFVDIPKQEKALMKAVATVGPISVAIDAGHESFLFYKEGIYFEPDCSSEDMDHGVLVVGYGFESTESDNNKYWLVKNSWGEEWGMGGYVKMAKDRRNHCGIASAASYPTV

## C/C(=N\Nc1nc(C)c[se]1)c1cccc([N+](=O)[O-])c1.Cl [Se2h, (E)-4-Methyl-2-(2-(1-(3-nitrophenyl)ethylidene)hydrazineyl)-1,3-selenazole Hydrochloride]
[1]; 10 µM, < 50% viability considered cytotoxic
  viability at 48 h, 10 µM: > 100%
[1]; viability calculated at 10 μM
  CC50 at 48 h: > 10 µM
[2]; 10 µM
  inhibition at 10 µM: 92.2%
[2]; each of two biological replicates in triplicate, read-out: IC50 hCatL, single biological replicate (Figure 4)
  IC50: 1.32 µM and 1.36 µM
[2]; mean of two experiments in triplicate (n = 6) ± SEM, read-out: IC50 hCatL
  IC50: 1.34 ± 0.018 µM
